Test system: human esophageal cancer Eca-109 nude mouse xenograft tumor
Experiment: Efficacy of DVDMS-PDT combined with PD-1 antibody in mouse model of human esophageal cancer Eca-109
Format: in vivo, nu/nu nude mice
Conditions: Only received DVDMS-PDT, DVDMS 2 mg/kg, laser 70 J/cm2, Day 21
Excerpt: Example 1. Efficacy of combined therapy of sodium porphyrine-mediated photodynamic therapy (DVDMS-PDT) with PD-1 antibody in a mouse model of human esophageal cancer Eca-109
Purpose: observe the growth-inhibiting effect of DVDMS-PDT combined with PD-1 antibody (Pembrolizumab) on human esophageal cancer Eca-109 nude mouse xenograft tumor, optimize the time window between DVDMS-PDT and PD-1 antibody treatment, and provide a reference for clinical application.
Harvest human esophageal cancer Eca-109 cells at logarithmic growth phase and dilute with culture medium to a cell concentration of 5*10^7 cells/mL, and inoculate subcutaneously at the right thigh root of nude mice at an injection of 0.1 mL per nude mouse. And 7-10 days later, grow the subcutaneous tumor at the root of the thigh on the right side of the nude mouse until the diameter is about 5-8 mm for later use.
Select qualified tumor-bearing mouse models as described above, measure the length and the width of the tumors using a vernier caliper, and stratify and group the mice according to tumor size, with 6 mice in each group. Prepare the sodium porphyrine DVDMS-2 for injection 24 hours before the experiment, and refrigerate in the dark before use. Administer DVDMS-2 via tail vein at a dose of 2 mg/kg body weight (Day-1), followed by PDT treatment 24 hours later (Day 0). […]

C=CC1=C(C)c2cc3[nH]c(cc4nc(cc5[nH]c(cc1n2)c(C)c5C(C)OC(C)C1=C(C)c2cc5[nH]c(cc6nc(cc7[nH]c(cc1n2)c(C)c7CCC(=O)[O-])C(CCC(=O)[O-])=C6C)c(C)c5C=C)C(C)=C4CCC(=O)[O-])c(CCC(=O)[O-])c3C.[Na+].[Na+].[Na+].[Na+] (centres unmarked) [DVDMS-PDT, bis [1-[6,7-sodium dipropionate-1,3,5,8-tetramethyl-2-vinyl-4-porphine]ethyl]ether]
Tumor growth inhibition rate(%): 66.8% | Tumor weight (in g (unit assumed)): 0.43 ± 0.58
